Test results as given in PubChem BioAssay (NCI).
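In this assay, cells in 96-well plates receive the compound at five concentrations for 48 hours. Endpoints are linearly interpolated between the surrounding concentrations. Definition used: TGI = concentration required for complete inhibition of growth.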

Legend:
Experiment in all cases: DTP human tumour cell line panel, 48 h
UO-31 renal = tested on: UO-31 renal
BT-549 breast = tested on: BT-549 breast
NCI-H522 lung = tested on: NCI-H522 lung
SR leukemia = tested on: SR leukemia
U251 CNS = tested on: U251 CNS
SNB-75 CNS = tested on: SNB-75 CNS
IGROV1 ovarian = tested on: IGROV1 ovarian
OVCAR-5 ovarian = tested on: OVCAR-5 ovarian
MDA-MB-435 = tested on: MDA-MB-435
SF-268 CNS = tested on: SF-268 CNS
RPMI-8226 leukemia = tested on: RPMI-8226 leukemia
M14 melanoma = tested on: M14 melanoma
CCRF-CEM leukemia = tested on: CCRF-CEM leukemia

Row | Compound | TGI (UO-31 renal) | TGI (BT-549 breast) | TGI (NCI-H522 lung) | TGI (SR leukemia) | TGI (U251 CNS) | TGI (SNB-75 CNS) | TGI (IGROV1 ovarian) | TGI (OVCAR-5 ovarian) | TGI (MDA-MB-435) | TGI (SF-268 CNS) | TGI (RPMI-8226 leukemia) | TGI (M14 melanoma) | TGI (CCRF-CEM leukemia)
1 | C#CC(O)/C=C/CCCCCCC#CC/C=C\CC#CCCCCCCCCC(O)C#C (stereo not given) | 1.41 µM | 20.4 µM | 0.526 µM | > 22 µM | > 55.8 µM | 23.4 µM | 1.12 µM | 27 µM | 7.43 µM | 25.8 µM | – | – | –
2 | COc1ccc(NCC(=O)Nn2c(-c3ccccc3)nc3ccccc3c2=O)cc1 | > 100 µM | 65.4 µM | > 10 µM | > 100 µM | 87.1 µM | > 100 µM | > 100 µM | > 100 µM | > 100 µM | > 100 µM | > 100 µM | > 100 µM | > 100 µM
3 | CC1(C)COC2=C(C1)C(=O)c1ccccc1C2=O | 2.21 µM | 3.66 µM | 3.8 µM | 8.37 µM | 2.78 µM | 3.04 µM | 3.45 µM | 3.15 µM | 0.338 µM | 3.57 µM | 4.45 µM | 2.96 µM | 5.77 µM
4 | Cc1nc2sc(C(=O)c3ccc(Cl)cc3)c(N)c2c(-c2ccccc2Cl)c1C(=O)Nc1ccccc1 | 51.1 µM | 48 µM | 25.1 µM | 58.2 µM | 37.4 µM | 29.7 µM | > 70.5 µM | 38.6 µM | 33.1 µM | > 94.9 µM | 62.2 µM | 25.8 µM | 19.9 µM
5 | COC1(CC[C@@H](C)COC2OC(CO)C(O)C(O)C2O)O[C@H]2C[C@H]3[C@@H]4CC=C5C[C@@H](OC6OC(CO)C(O)C(OC7OC(CO)C(O)C(O)C7O)C6OC6OC(C)C(O)C(O)C6O)CC[C@]5(C)[C@H]4CC[C@]3(C)[C@H]2[C@@H]1C (stereo not given in full) | 9.53 µM | 31.8 µM | 15.3 µM | > 100 µM | 4.13 µM | 11.2 µM | 19.8 µM | > 39.4 µM | 8.52 µM | 26.4 µM | > 88.3 µM | 5.41 µM | > 100 µM
6 | CN(CCNC(=O)c1c[nH]c2c1Cc1ccccc1-2)CCNC(=O)c1c[nH]c2c1Cc1ccccc1-2 | > 100 µM | > 100 µM | 97 µM | > 100 µM | 34.7 µM | – | > 100 µM | > 100 µM | 41.3 µM | > 100 µM | 73.4 µM | 84.6 µM | –
7 | COc1cc(OC)c2c(c1)OC(c1cccnc1)C(c1ccccc1)C2=O (stereo not given) | > 100 µM | > 100 µM | > 100 µM | > 100 µM | > 100 µM | > 100 µM | > 100 µM | > 100 µM | > 100 µM | > 100 µM | > 100 µM | > 100 µM | > 100 µM
8 | Cc1ccc2c(c1)nc1n2C(N)=Nc2ccccc2S1 | > 100 µM | > 100 µM | > 100 µM | > 100 µM | > 100 µM | > 100 µM | > 100 µM | > 100 µM | > 100 µM | > 100 µM | > 100 µM | > 100 µM | –
9 | C=C1C(=O)O[C@H]2C[C@@H]1[C@@H](O)[C@H](O)[C@@H](C)CCCC(C)=CCC[C@@]2(C)O | 28.5 µM | 25.9 µM | 33.9 µM | > 100 µM | 64.5 µM | > 100 µM | > 100 µM | 51.3 µM | > 100 µM | 73 µM | 45.3 µM | 29.8 µM | > 100 µM
10 | COc1cc2c(/C=C3/C(=O)N(C)c4ccc(O)cc43)c(Cl)[nH]c2cc1C | 24.5 µM | 15.8 µM | 16.6 µM | 1.23 µM | 17.6 µM | 20.8 µM | 19.9 µM | 21.6 µM | 0.124 µM | 25.3 µM | 4.7 µM | 13.1 µM | –
11 | O=C(O)c1nc2ccc(C(F)(F)F)cc2nc1Nc1ccc(F)cc1 | 24.6 µM | 44.2 µM | 24.7 µM | 36.8 µM | > 100 µM | 60 µM | 62.6 µM | 64.3 µM | 44.7 µM | 48.1 µM | – | – | –
12 | CC(C)=CC(=O)c1[nH]c2ccccc2c1CC(=O)NCCc1cncn1C | 47.6 µM | > 100 µM | 84.6 µM | 68 µM | > 100 µM | > 100 µM | > 100 µM | > 100 µM | > 100 µM | > 100 µM | – | > 100 µM | > 100 µM
13 | C[C@]12CC(c3ccccc3O1)C(C(=O)Nc1nc(C34CC5CC(CC(C5)C3)C4)cs1)C(=O)N2 (stereo not given in full) | – | > 100 µM | – | > 100 µM | > 100 µM | > 100 µM | > 100 µM | > 100 µM | > 100 µM | > 100 µM | > 100 µM | > 100 µM | > 100 µM
14 | O=C1CSC(c2cccc(Cl)c2)N1c1ccc(-c2ccc(-n3c(-c4ccccc4)nc4ccccc4c3=O)cc2)cc1 (stereo not given) | 84.1 µM | 80.3 µM | > 100 µM | > 100 µM | > 100 µM | – | > 100 µM | > 100 µM | > 100 µM | > 100 µM | > 100 µM | > 100 µM | > 100 µM
15 | Cc1cc2nc3c(C#N)c4c(c(-c5ccc(Cl)cc5)n3c2cc1C)CCC4 | 39.4 µM | 41.8 µM | 35.4 µM | 45.7 µM | 78.4 µM | – | 36.2 µM | – | 54.8 µM | 57.9 µM | 74.4 µM | 32.7 µM | 70.7 µM
16 | O=c1[nH]c(NCc2ccc(Cl)cc2)nc2nc[nH]c12 | > 100 µM | > 100 µM | > 100 µM | – | > 100 µM | > 100 µM | > 100 µM | > 100 µM | > 100 µM | > 100 µM | > 100 µM | > 100 µM | > 100 µM
17 | O=c1[nH]c(=O)n(COCc2ccccc2)cc1Nc1ccc(Br)cc1 | > 100 µM | > 100 µM | – | > 100 µM | > 100 µM | – | > 100 µM | > 100 µM | > 100 µM | > 100 µM | > 100 µM | > 100 µM | > 100 µM
18 | COc1ccccc1C1(c2c(OC)c(=O)c2=O)SCCCS1 | > 100 µM | > 100 µM | > 100 µM | – | > 100 µM | > 100 µM | > 100 µM | > 100 µM | > 100 µM | > 100 µM | > 100 µM | > 100 µM | > 100 µM
19 | Br[C@@H]1[C@H]2c3nc4ccccc4nc3[C@@H]1C[C@H]2Br | > 100 µM | > 100 µM | > 100 µM | > 100 µM | > 100 µM | – | > 100 µM | > 100 µM | > 100 µM | > 100 µM | – | > 100 µM | > 100 µM
20 | [N-]=[N+]=CC(=O)OCCCCl | > 100 µM | > 100 µM | > 100 µM | > 100 µM | > 100 µM | – | > 100 µM | > 100 µM | > 100 µM | > 100 µM | > 100 µM | – | > 100 µM
21 | CC(C)C1=CC(=O)[C@@](C)(C2[C@H](O)C[C@@]3(C)[C@@H]4CC=C5[C@@H](CC[C@@H](OC6OCC(O)C(O)C6OC6OC(C)C(O)C(O)C6O)C5(C)C)[C@]4(C)C(=O)C[C@]23C)O1 (stereo not given in full) | > 100 µM | > 100 µM | > 100 µM | – | > 100 µM | > 100 µM | > 100 µM | > 100 µM | > 100 µM | > 100 µM | > 100 µM | > 100 µM | > 100 µM
22 | Cc1ccc(C2(c3ccc(F)cc3)OC(=O)c3ccccc32)c(O)c1 (stereo not given) | 22.4 µM | 44.6 µM | 35.9 µM | – | 46.2 µM | 31.6 µM | 34 µM | 28.5 µM | 31.6 µM | 86.7 µM | 59.8 µM | 30.1 µM | 94.2 µM
23 | CC(=O)OCC1OC(n2c(Br)nc3c2c(=O)n(C)c(=O)n3C)C(OC(C)=O)C1OC(C)=O (stereo not given) | > 100 µM | > 100 µM | > 100 µM | > 100 µM | > 100 µM | > 100 µM | > 100 µM | > 100 µM | > 100 µM | > 100 µM | 95.6 µM | > 100 µM | –
24 | NCCN1C(=O)c2ccccc2C1c1ccc(Cl)cc1 (stereo not given) | > 100 µM | > 100 µM | – | > 100 µM | > 100 µM | > 100 µM | > 100 µM | > 100 µM | > 100 µM | > 100 µM | > 100 µM | > 100 µM | > 100 µM
25 | Brc1cccc(C2ON=C(c3ccccc3)N2C23CC4CC(CC(C4)C2)C3)c1 (stereo not given) | > 10 µM | > 10 µM | > 10 µM | – | > 10 µM | > 10 µM | > 10 µM | > 10 µM | > 10 µM | > 10 µM | > 10 µM | > 10 µM | > 10 µM
26 | C/C(=N\Nc1nc2ccccc2s1)c1cc2ccccc2cn1 | 14.8 µM | 45.8 µM | 26 µM | – | > 100 µM | 32.4 µM | 16 µM | 54.5 µM | 72.8 µM | > 100 µM | > 100 µM | 23.2 µM | 8.04 µM
27 | COC(=O)c1cc(OC)c(OC)c(OC)c1-c1cc2c(cc1C=O)OCO2 | > 10 µM | > 10 µM | > 10 µM | – | > 10 µM | > 10 µM | > 10 µM | > 10 µM | > 10 µM | > 10 µM | > 10 µM | > 10 µM | > 10 µM
